Data set [1] concerns the target T1, Free fatty acid receptor 4 (Homo sapiens, UniProt Q5NUL3).
T1 sequence (Q5NUL3 whole entry): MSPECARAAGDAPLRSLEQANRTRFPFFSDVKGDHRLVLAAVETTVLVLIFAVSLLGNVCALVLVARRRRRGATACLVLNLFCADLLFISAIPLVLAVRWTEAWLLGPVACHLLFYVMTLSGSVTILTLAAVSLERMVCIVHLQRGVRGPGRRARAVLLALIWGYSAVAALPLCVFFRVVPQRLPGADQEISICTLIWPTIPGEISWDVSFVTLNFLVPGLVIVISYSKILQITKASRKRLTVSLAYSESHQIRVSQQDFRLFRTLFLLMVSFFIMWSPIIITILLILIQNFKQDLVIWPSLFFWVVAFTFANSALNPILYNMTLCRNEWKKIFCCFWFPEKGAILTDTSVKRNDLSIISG
Kind of data set: Agonist activity at FFAR4 (unknown origin). In kind it is functional.

Data set [2] has as its target Free fatty acid receptor 1 (Mus musculus) (UniProt Q76JU9). In words: Agonist activity at GPR40 in mouse MIN6 cells assessed as fold increase in 17 mM glucose-mediated insulin secretion at 1 to 10 uM incubated for 2 hrs by ELISA relative to control. In kind it is functional, cell-based. As to conditions: filed as positive allosteric modulator, dose 1-10 µM.
Data set [3] is described as follows: Tmax in CD-1 mouse at 10 mg/kg, po measured up to 8 hrs by LC-MS/MS analysis. As to conditions: in vivo. In kind it is ADME, organism-based.
Data set [4] is described as follows: Metabolic stability in human liver microsomes assessed as intrinsic clearance. In kind it is ADME, Microsome. The note with it: read-out: CLH. (In general: Microsomes from liver hold many membrane-bound enzymes, among them those of drug oxidation.)
Data set [5] can be described thus: MRTlast in CD-1 mouse at 10 mg/kg, po measured up to 8 hrs by LC-MS/MS analysis. In kind it is ADME, organism-based. As to conditions: in vivo.
In data set [6] the target is Free fatty acid receptor 1 (Homo sapiens, UniProt O14842). In words: Agonist activity at GPR40 (unknown origin) expressed in CHO cells co-expressing luc2P/SRE assessed as induction of DHA-induced firefly luciferase activity incubated for 24 hrs by Bright-Glo based serum response element (SRE) luciferase reporter assay. In kind it is functional, cell-based. As to conditions: filed as positive allosteric modulator. A general note: In a reporter assay the amount or activity of a reporter protein is the signal.
Free fatty acid receptor 1, sequence (O14842 whole entry): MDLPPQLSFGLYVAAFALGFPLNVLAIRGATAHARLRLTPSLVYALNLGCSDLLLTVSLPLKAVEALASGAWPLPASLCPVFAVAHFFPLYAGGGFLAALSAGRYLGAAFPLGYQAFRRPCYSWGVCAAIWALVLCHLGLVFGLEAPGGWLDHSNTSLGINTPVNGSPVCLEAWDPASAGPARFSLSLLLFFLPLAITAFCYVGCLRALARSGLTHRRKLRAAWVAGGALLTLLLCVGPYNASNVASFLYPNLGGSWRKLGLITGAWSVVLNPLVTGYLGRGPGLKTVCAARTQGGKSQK

In data set [7] the test system is Mus musculus. Kind of data set: Antidiabetic activity in C57BL/6J mouse assessed as reduction in plasma glucose level at 30 mg/kg, po pretreated 1 hr before glucose challenge measured up to 120 mins by Oral glucose tolerance test. Further details: scale not given: the % may be the effect or the level left. Format: functional. The note with it: 2 h.
Data set [8] deals with Free fatty acid receptor 1 (Mus musculus) (UniProt Q76JU9). Kind of data set: Agonist activity at GPR40 in mouse MIN6 cells assessed as fold increase in 17 mM glucose-mediated insulin secretion at 1 to 10 uM incubated for 2 hrs in presence of GW1100 by ELISA relative to control. Format: functional, cell-based. As to conditions: dose 1-10 µM.
Free fatty acid receptor 1 (Mus musculus), sequence (Q76JU9 whole entry): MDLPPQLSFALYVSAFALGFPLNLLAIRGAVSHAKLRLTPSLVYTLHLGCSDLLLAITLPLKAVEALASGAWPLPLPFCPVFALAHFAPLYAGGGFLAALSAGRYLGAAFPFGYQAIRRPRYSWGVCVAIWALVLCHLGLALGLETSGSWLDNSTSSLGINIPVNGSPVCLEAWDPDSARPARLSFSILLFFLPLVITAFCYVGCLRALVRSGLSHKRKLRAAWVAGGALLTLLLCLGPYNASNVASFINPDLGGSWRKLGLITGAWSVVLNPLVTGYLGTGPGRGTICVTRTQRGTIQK
Data set [9] in a line: Clast in CD-1 mouse at 30 mg/kg, po measured up to 8 hrs by LC-MS/MS analysis. Format: ADME, organism-based. The note with it: in vivo, read-out: Clast.
In data set [10] the target is Free fatty acid receptor 1 (Mus musculus) (UniProt Q76JU9). In words: Agonist activity at GPR40 in mouse MIN6 cells assessed as fold increase in 3 mM glucose-mediated insulin secretion at 10 uM incubated for 2 hrs by ELISA relative to control. In kind it is functional, cell-based. In general terms: In an ELISA, binding on a coated surface is turned into a signal by an enzyme label.

The target in data set [11] is T2, Peroxisome proliferator-activated receptor gamma (Homo sapiens) (UniProt P37231).
T2 sequence (whole entry): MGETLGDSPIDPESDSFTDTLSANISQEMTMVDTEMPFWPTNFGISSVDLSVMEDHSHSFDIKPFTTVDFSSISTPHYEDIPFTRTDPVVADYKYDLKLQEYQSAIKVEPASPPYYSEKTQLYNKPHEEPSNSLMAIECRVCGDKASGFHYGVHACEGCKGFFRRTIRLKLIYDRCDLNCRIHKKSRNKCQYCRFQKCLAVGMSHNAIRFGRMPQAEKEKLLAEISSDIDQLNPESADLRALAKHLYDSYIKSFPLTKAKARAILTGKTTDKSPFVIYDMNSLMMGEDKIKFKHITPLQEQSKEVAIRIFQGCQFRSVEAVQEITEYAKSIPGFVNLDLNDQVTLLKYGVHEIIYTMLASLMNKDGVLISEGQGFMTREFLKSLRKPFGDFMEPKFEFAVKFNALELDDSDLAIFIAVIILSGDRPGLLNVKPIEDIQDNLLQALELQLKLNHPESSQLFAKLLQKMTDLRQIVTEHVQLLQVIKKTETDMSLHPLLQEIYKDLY
Kind of data set: Agonist activity at human PPARgamma expressed in CHO cells assessed as increase in receptor transcriptional activity at 1 uM incubated for 24 hrs by dual luciferase reporter gene assay relative to rosiglitazone. Format: cell-based.

The nature of data set [12]: Solubility of the compound in FaSSIF at 27 degC measured after 24 hrs. In kind it is physicochemical. As to conditions: simulated gi fluid.
Data set [13] can be described thus: AUC (0 to t) in CD-1 mouse at 10 mg/kg, po measured up to 8 hrs by LC-MS/MS analysis. Format: ADME, organism-based. More on the design: route oral, dose 10 mg/kg, time <=8. The note with it: in vivo.
Data set [14] can be described thus: MRTlast in CD-1 mouse at 90 mg/kg, po measured up to 8 hrs by LC-MS/MS analysis. In kind it is ADME, organism-based. The note with it: in vivo.
A short description of data set [15]: Tlast in CD-1 mouse at 90 mg/kg, po measured up to 8 hrs by LC-MS/MS analysis. As to conditions: in vivo. In kind it is ADME, organism-based.
Data set [16] in a line: Half life in CD-1 mouse at 90 mg/kg, po measured up to 8 hrs by LC-MS/MS analysis. In kind it is ADME, organism-based. As to conditions: in vivo.
Data set [17] concerns Mus musculus. Kind of data set: Antidiabetic activity in db/db mouse assessed as reduction in plasma glucose level at 30 mg/kg, po pretreated 1 hr before glucose challenge measured up to 120 mins by Oral glucose tolerance test. In kind it is functional, organism-based.
Data set [18] has as its system Mus musculus. In words: Antidiabetic activity in C57BL/6J mouse assessed as increase in plasma GLP1 level at 30 mg/kg, po measured after 30 mins in presence of KR-62436 by ELISA relative to KR-62436 treated control. In kind it is functional. As to conditions: 0.5 h.
The test system of data set [19] is Mus musculus. In words: Antidiabetic activity in C57BL/6J mouse assessed as increase in plasma GLP1 level at 30 mg/kg, po measured after 30 mins by ELISA relative control. Format: functional, organism-based.

Activity calls are given as the source filed them. The rule behind the calls is not given here.

What is called EC50 is the concentration giving half of the maximal effect. Broadly, the Tmax is the time at which the peak concentration occurs. In general, MRT last refers to a mean duration of stay, worked out from the concentration-time curve. What is called AUC(0-t) is exposure summed from dosing to a finite time, without extrapolation to infinity. For orientation: half-life means the time in which the quantity being followed falls by half. In the case of `Cc1cc(F)ccc1-c1cc2cc(CCC(=O)O)ccc2[nH]1`, in [1], the EC50 was over 25 µM. For the same compound, in data set [2], the fold change (FC) stood at 1.16. For the same compound, the Tmax in data set [3] was found to be 0.55 h. Moreover, the microsomal CLint in data set [4] is at most 4 µL/min/mg. The MRT last at 8 h turned out to be 1.23 h in [5] and 1.14 h in [14]. Besides, the outcome in data set [6] was Active. Further, the Activity with Mus musculus [7] is 22.9%. In addition, the result in data set [8] and in [10] was inactive. Further, the concentration at 8 h in data set [9] was found to be 189 ng/mL. Besides, the Emax in data set [11] is 32.5%. Besides, the solubility result in data set [12] is listed as “Soluble”. In [13], this compound gave an AUC(0-t) at 8 h of 4860 ng·h/mL. In [15], this compound displayed a Tlast of 8 h. Further, the half-life in data set [16] was 1.4 h.

For `Cc1ccc(C)c(-c2cc3cc(CCC(=O)O)ccc3[nH]2)c1`, the EC50 in data set [1] came out at 14.8 µM. In [3], the Tmax is 0.33 h. The microsomal CLint in data set [4] was at most 4 µL/min/mg. For the same compound, the MRT last at 8 h in data set [5] was 2.06 h; in data set [14], 2.31 h. Besides, the result (in the data set on Mus musculus [17]; in [6]; with Mus musculus [19]) was Active. Besides, the results for the Activity in the data set with Mus musculus [7] and with Mus musculus [18] were 14.4% and 163%, respectively. Besides, the result in data set [8] and in data set [10] was inactive. For the same compound, the concentration at 8 h in data set [9] was determined as 62 ng/mL. The solubility entry in data set [12] was “Soluble”. For the same compound, the exposure AUC(0-t) at 8 h in data set [13] was determined as 114000 ng·h/mL. Also, in [15], the Tlast came out at 8 h. Besides, the half-life in [16] is 1.36 h.

The record behind these values is ChEMBL document CHEMBL4808171, “Structure-Activity Relationship Study and Biological Evaluation of 2-(Disubstituted phenyl)-indole-5-propanoic Acid Derivatives as GPR40 Full Agonists” (J Med Chem, 2021).
